In US20250049776A1, “AUTOPHAGY INDUCING COMPOUNDS AND USES THEREOF, IN PARTICULAR FOR A SYSTEMIC TREATMENT OF DISEASES AND CONDITIONS” (Samsara Therapeutics Inc., priority 2021, published 2025):
Structures can show the parent of a compound that is named as a salt.

Tested on: C3-PMP22 transgenic mice (B6.Cg-Tg(PMP22)C3Fbas/J)
Assay: Mouse model of Charcot-Marie-Tooth 1A (CMT1A)
Assay type: in vivo
Text: Compound 163 was selected as an example compound of this invention to be evaluated in this model. This model (run by In vivex SAS, France) uses C3-PMP22 transgenic mice (B6·Cg-Tg(PMP22)C3Fbas/J) which express three copies of a wild-type human peripheral myelin protein 22 (PMP22) gene. These mice present an age-dependent demyelinating neuropathy characterized by predominantly distal loss of strength and sensation. C3-PMP mice show no overt clinical signs at 3 weeks and develop mild neuromuscular impairment in an age-dependent manner. They have stable, low nerve conduction velocities similar to adults with human CMT1A. Myelination is delayed in these mice, and they contain reduced numbers of myelinated fibres at 3 weeks of age.
• Animal characteristics: • Sex/Species/Strain: B6.Cg-Tg(PMP22)C3Fbas/JMale • Age: 3 weeks old • Supplier: Jackson Laboratory (USA) • Approximate weight at initiation of treatment: 19.0 g±2.5 g • Animal number: 6 mice per group • Animal identification: At the beginning of the study, animals were identified with a number on the tail. […] Clinical signs and mortality were recorded daily. Body weight was determined twice a week. • Study Outline: • Dose: 30 mg/kg • Administration: Oral gavage • Readouts: • i) Rotarod (neuromuscular performance) • ii) Sciatic nerve electrophysiology (EMG) • iii) PMP22 analysis by western blot • iv) Histology of sciatic nerve • Experimental time duration: Readouts measures at 1 and 2 months old. • Baseline rotarod and EMG readouts at 1 month old • Rotarod and EMG readouts at 2 months old • Western blot for PMP22 and histopathology of sciatic nerve at 2 months old • Vehicle used for test Compound 163: 10% DMSO/5% Cremophor R H 40 and 85% of 10% HP-β-CD in water (v/v) • Vehicle control group: vehicle only (non-treated control) • Statistics: Statistical analyses were performed using Prism software. A probability less than 5% (p<0.05) was considered as significant.
Sciatic nerve electrophysiology. Electromyography was performed on mice anesthetized with ketamine/xylazine mixture. A pair of steel needle electrodes (AD Instruments, MLA1302) were placed subcutaneously along the nerve at the sciatic notch (proximal stimulation). A second pair of electrodes were placed along the tibial nerve above the ankle (distal stimulation). Supramaximal square-wave pulses, lasting 10 ms at 1 mA were delivered using a PowerLab 26T (AD Instruments). Compound muscle action potential (CMAP) was recorded from the intrinsic foot muscles using steel electrodes. Both amplitudes and latencies of CMAP were determined. The distance between the 2 sites of stimulation was measured alongside the skin surface with fully extended legs, and nerve conduction velocities (NCVs) were calculated automatically from sciatic nerve latency measurements using Excel.
Rotarod. A rotating rod apparatus (Bioseb, France) was used to measure neuromuscular coordination and balance. Mice were first given a pretraining trial to familiarize them with the rotating rod. […] Each animal underwent 3 trials a day. For each day, values from the 3 trials were averaged for each animal, and then averaged for each group.
After electrophysiology analysis and animal sacrifice, the left sciatic nerve of all animals were sampled, solubilized in 4° C. RIPA lysis buffer completed with protease inhibitors (Fisher Scientific, France), sonicated three times during 10 s on ice (Microson ultrasonic cell disruptorXL, Microsonic) and centrifuged for 30 min at 10,000 rpm at 4° C. 50 μL of the supernatant was sampled and total protein was quantified by NanoDrop using bovine serum albumin dilutions as standard. Then, ten micrograms of protein samples were denatured using Laemmli/β-mercaptoethanol (Merck, S3401) incubation at 95° C. during 10 minutes, separated on a denaturing 10% SDS-polyacrylamide gel and transferred onto nitrocellulose membranes. Membranes were blocked for 60 min with 5 mL of Licor Blocking Buffer. […]

[1] = CMT1A mice at 2 months old, 30 mg/kg oral gavage twice a day during one month
[2] = sciatic nerve histology, CMT1A mice at 2 months old, 30 mg/kg oral gavage twice a day

SMILES: CC(C)N(C(=O)c1csc(-c2cnn(-c3ccccc3)c2)n1)C1CCNCC1 [Compound 163, N-isopropyl-2-(1-phenyl-1H-pyrazol-4-yl)-N-(piperidin-4-yl)thiazole-4-carboxamide hydrochloride]
- increase in CMAP amplitude compared to the vehicle group [1]: 86%
- increase in mean rotarod latency compared to the vehicle group [1]: 133%
- increase in NCV compared to the vehicle group (CMT1A mice at 2 months old, 30 mg/kg oral gavage twice a day, not statistically significant): 94%
- differences on body weight between groups (CMT1A mice, 30 mg/kg oral gavage twice a day): No significant differences
- decrease in the g-ratio compared to the vehicle group [2]: 22%
- increase in the number of myelinating axons compared to the vehicle group [2]: 64%
- increase in the axonal diameter compared to the vehicle group (sciatic nerve histology, CMT1A mice at 2 months old, 30 mg/kg oral gavage twice a day, not statistically significant): 45%
- decrease in the level of PMP22 compared to the vehicle group (sciatic nerve western blot, CMT1A mice at 2 months old, 30 mg/kg oral gavage twice a day): 33%
